28 compounds from patent publication US7135466B2 (Kirin Beer Kabushiki Kaisha, priority 1999, dated 2006) can be followed below.

In assay [1] the target is T1, PDGF-Ra (Homo sapiens, UniProt P16234).
T1 construct: host or cells: G-292 human osteosarcoma cells
The assay can be described thus: Inhibitory activity against PDGF-Ra phosphorylation by PDGF-AA stimulation using G292. The class given is cell-based. As to conditions: for IC50: > means inhibition at indicated concentration not more than 50%, < and << not less than 50%, read-out: PDGF (E) IC50; for inhibition at 0.1 µM: G292, figure within parentheses in >100( ), at 100 nM, read-out: PDGF (E) inhibition (%) at 100 nM. Summed up: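 Phosphorylated PDGF-Ra was measured colorimetrically (450 nm) after tyrosine-phosphorylated proteins from G-292 lysates were bound to PY-20-coated wells and detected with anti-PDGF-Ra antibody. Compound preincubation lasted 1 hr, followed by 50 ng/ml PDGF-AA for 5 min.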

For assay [2], the target named is T2, c-kit (Homo sapiens, UniProt P10721).
T2 construct: MO7e (human megakaryocytic leukemia cell line) which had been arrested for 20 hr; endogenous in cells; host or cells: MO7e human megakaryocytic leukemia cell line
T2 sequence (P10721 26-976): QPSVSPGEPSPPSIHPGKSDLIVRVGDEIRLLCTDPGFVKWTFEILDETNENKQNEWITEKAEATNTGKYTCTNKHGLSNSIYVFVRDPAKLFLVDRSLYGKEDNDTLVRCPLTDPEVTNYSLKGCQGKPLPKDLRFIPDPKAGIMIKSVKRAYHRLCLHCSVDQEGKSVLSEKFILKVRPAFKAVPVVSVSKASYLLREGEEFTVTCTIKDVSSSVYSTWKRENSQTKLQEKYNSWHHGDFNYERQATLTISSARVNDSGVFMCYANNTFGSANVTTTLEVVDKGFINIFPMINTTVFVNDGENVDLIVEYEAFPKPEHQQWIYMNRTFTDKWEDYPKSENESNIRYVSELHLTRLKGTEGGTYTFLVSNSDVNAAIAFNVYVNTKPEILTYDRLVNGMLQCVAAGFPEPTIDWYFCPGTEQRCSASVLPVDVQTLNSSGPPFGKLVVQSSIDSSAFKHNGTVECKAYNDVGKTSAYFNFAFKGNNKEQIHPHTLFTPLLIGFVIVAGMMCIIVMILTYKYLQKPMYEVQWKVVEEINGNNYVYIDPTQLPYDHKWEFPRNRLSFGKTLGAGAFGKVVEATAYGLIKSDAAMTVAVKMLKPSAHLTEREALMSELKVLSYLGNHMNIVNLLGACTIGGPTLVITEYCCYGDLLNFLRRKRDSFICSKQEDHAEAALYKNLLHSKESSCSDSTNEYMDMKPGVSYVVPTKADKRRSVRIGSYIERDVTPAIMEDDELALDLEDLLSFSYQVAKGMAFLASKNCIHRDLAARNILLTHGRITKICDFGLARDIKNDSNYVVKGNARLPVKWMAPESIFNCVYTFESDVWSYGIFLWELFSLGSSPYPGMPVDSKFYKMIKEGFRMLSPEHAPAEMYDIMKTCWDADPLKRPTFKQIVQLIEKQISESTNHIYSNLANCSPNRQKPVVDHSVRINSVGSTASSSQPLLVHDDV
The assay can be described thus: Inhibitory activity against c-kit autophosphorylation (MO7e cells, h-SCF). As to conditions: for inhibition at 1 µM: Mo7e, figure within parentheses in −( ) or >1000( ), at 1000 nM; for IC50: MO7e cells, 50 ng/ml h-SCF, read-out: c-kit IC50. Format: cell-based. Summed up:
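MO7e human megakaryocytic leukemia cells, arrested 20 hr, treated with compound 1 hr, then stimulated with 50 ng/ml h-SCF for 5 min and lysed. Lysates captured on immobilized anti-phosphotyrosine antibody, detected with anti-c-kit primary and HRP secondary antibody; absorbance at 450 nm.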

T1 sequence (P16234 24-1089): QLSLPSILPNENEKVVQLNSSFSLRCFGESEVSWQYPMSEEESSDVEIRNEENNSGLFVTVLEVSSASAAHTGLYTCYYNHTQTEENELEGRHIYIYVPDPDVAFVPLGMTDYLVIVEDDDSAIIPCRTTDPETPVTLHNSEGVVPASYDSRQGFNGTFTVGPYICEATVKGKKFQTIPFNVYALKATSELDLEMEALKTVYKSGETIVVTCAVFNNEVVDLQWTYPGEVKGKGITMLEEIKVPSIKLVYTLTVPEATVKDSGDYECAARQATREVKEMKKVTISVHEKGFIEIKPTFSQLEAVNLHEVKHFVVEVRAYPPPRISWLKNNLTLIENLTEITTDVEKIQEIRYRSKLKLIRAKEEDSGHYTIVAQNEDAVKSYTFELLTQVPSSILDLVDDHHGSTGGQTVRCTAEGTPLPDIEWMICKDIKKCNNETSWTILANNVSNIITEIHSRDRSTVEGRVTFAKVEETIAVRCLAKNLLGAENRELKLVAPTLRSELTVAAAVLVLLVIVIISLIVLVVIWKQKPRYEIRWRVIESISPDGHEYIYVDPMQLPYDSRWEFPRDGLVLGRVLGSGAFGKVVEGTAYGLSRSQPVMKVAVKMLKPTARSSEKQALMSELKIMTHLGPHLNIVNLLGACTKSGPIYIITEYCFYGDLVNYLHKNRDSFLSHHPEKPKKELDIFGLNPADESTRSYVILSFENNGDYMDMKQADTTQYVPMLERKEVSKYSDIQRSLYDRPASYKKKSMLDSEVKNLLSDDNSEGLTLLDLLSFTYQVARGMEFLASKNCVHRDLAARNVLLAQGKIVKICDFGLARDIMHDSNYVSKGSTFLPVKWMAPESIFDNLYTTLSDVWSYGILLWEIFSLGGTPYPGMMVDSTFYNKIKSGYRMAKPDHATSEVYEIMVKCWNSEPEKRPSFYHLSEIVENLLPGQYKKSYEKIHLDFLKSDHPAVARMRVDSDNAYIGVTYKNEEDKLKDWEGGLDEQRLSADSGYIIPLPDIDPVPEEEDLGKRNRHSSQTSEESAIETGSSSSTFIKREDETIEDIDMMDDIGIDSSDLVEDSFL

For orientation: IC50 means the midpoint of a concentration-inhibition curve. What is called inhibition is the drop in the measured response relative to a control, in per cent. As for `COc1cc(Oc2ncnc3cc(OC)c(OC)cc23)ccc1NC(=O)NCCCN1CCN(C)CC1` [Example 633, N-{4-[(6,7-Dimethoxy-4-quinazolinyl)oxy]-2-methoxyphenyl}-N′-[3-(4-methylpiperazino)-propyl]urea], the IC50 in assay [1] was 0.058 µM. Further, the inhibition at 1 µM in assay [2] came out at 28%.

Take `COc1cc2nccc(Oc3cc(C)c(NC(=O)NC4CCN(Cc5ccccc5)CC4)cc3C)c2cc1OC` [Example 634, N-(1-Benzyl-4-piperidyl)-N′-{4-[(6,7-dimethoxy-4-quinolyl)oxy]-2,5-dimethylphenyl}urea]: in assay [1], the IC50 was above 0.1 µM and the inhibition at 0.1 µM was 40%. The inhibition at 1 µM in assay [2] was determined as 13%.

As for `COc1cc2nccc(Oc3ccc(NC(=O)NC4CCN(Cc5ccccc5)CC4)c(C)c3C)c2cc1OC` [Example 635, N-(1-Benzyl-4-piperidyl)-N′-{4-[(6,7-dimethoxy-4-quinolyl)oxy]-2,3-dimethylphenyl}urea], in assay [1], the IC50 is above 0.1 µM and the inhibition at 0.1 µM stood at 25%. The inhibition at 1 µM in assay [2] was 23%.

On to `COc1cc2ncnc(Oc3ccc(NC(=O)NC4CCN(Cc5ccccc5)CC4)cc3)c2cc1OC` [Example 636, N-(1-Benzyl-4-piperidyl)-N′-{4-[(6,7-dimethoxy-4-quinazolinyl)oxy]phenyl}urea], for which the IC50 in assay [1] was determined as 0.033 µM; in assay [2], 0.106 µM.

Consider `COc1cc2ncnc(Oc3ccc(NC(=O)NC4CCN(Cc5ccccc5)CC4)c(Cl)c3)c2cc1OC` [Example 637, N-(1-Benzyl-4-piperidyl)-N′-{2-chloro-4-[(6,7-dimethoxy-4-quinazolinyl)oxy]phenyl}urea], for which the IC50 in assay [1] amounted to 0.052 µM; in assay [2] it was 0.375 µM.

Regarding `COc1cc2nccc(Oc3ccc(NC(=O)NC4CCN(Cc5ccccc5)CC4)c([N+](=O)[O-])c3)c2cc1OC` [Example 638, N-(1-Benzyl-4-piperidyl)-N′-{4-[(6,7-dimethoxy-4-quinolyl)oxy]-2-nitrophenyl}urea], in assay [1], the IC50 is above 0.1 µM and the inhibition at 0.1 µM is 43%. Moreover, the inhibition at 1 µM in assay [2] was found to be 16%.

As for `COc1cc2nccc(Oc3ccc(NC(=O)NC4CCN(Cc5ccccc5)CC4)cc3F)c2cc1OC` [Example 639, N-(1-Benzyl-4-piperidyl)-N′-{4-[(6,7-dimethoxy-4-quinolyl)oxy]-3-fluorophenyl}urea], in assay [1], the IC50 is above 0.1 µM and the inhibition at 0.1 µM stood at 29%. In addition, the inhibition at 1 µM in assay [2] was determined as 12%.

In the case of `COc1cc2ncnc(Oc3ccc(NC(=O)NC4CCN(Cc5ccccc5)CC4)c([N+](=O)[O-])c3)c2cc1OC` [Example 640, N-(1-Benzyl-4-piperidyl)-N′-{4-[(6,7-dimethoxy-4-quinazolinyl)oxy]-2-nitrophenyl}urea], the values for the IC50 in assay [1] and in assay [2] were 0.035 µM and 0.254 µM, respectively.

Regarding `COc1cc(Oc2ncnc3cc(OC)c(OC)cc23)ccc1NC(=O)NC1CCN(Cc2ccccc2)CC1` [Example 641, N-(1-Benzyl-4-piperidyl)-N′-{4-[(6,7-dimethoxy-4-quinazolinyl)oxy]-2-methoxyphenyl}urea], the IC50 in assay [1] was 0.028 µM; in assay [2], 0.293 µM.

With `COc1cc2nccc(Oc3ccc(NC(=O)NC4CCN(Cc5ccccc5)CC4)cc3C)c2cc1OC` [Example 642, N-(1-Benzyl-4-piperidyl)-N′-{4-[(6,7-dimethoxy-4-quinolyl)oxy]-3-methylphenyl}urea], in assay [1], the IC50 was above 0.1 µM and the inhibition at 0.1 µM was 20%. Moreover, in assay [2], the inhibition at 1 µM was 8%.

For the compound `COc1cc2nccc(Oc3ccc(NC(=O)NC4CCN(Cc5ccccc5)CC4)c(C)c3)c2cc1OC` [Example 643, N-(1-Benzyl-4-piperidyl)-N′-{4-[(6,7-dimethoxy-4-quinolyl)oxy]-2-methylphenyl}urea], in assay [1], the half-inhibitory concentration (IC50) is above 0.1 µM and the inhibition at 0.1 µM worked out at 40%. In assay [2], the inhibition at 1 µM was 2%.

Regarding `COc1cc2nccc(Oc3ccc(NC(=O)NC4CCN(Cc5ccccc5)CC4)cc3Cl)c2cc1OC` [Example 644, N-(1-Benzyl-4-piperidyl)-N′-{3-chloro-4-[(6,7-dimethoxy-4-quinolyl)oxy]phenyl}urea], in assay [1], the IC50 is above 0.1 µM and the inhibition at 0.1 µM came out at 17%. Besides, in assay [2], the inhibition at 1 µM turned out to be 14%.

Consider `CCN(CC)CCNC(=O)Nc1ccc(Oc2ncnc3cc(OC)c(OC)cc23)cc1Cl` [Example 645, N-{2-Chloro-4-[(6,7-dimethoxy-4-quinazolinyl)oxy]phenyl}-N′-[2-(diethylamino)ethyl]urea], for which, in assay [1], the IC50 turned out to be 0.023 µM. For the same compound, in assay [2], the inhibition at 1 µM was found to be 32%.

In the case of `CCN(CC)CCNC(=O)Nc1ccc(Oc2ccnc3cc(OC)c(OC)cc23)cc1[N+](=O)[O-]` [Example 646, N-[2-(Diethylamino)ethyl]-N′-{4-[(6,7-dimethoxy-4-quinolyl)oxy]-2-nitrophenyl}urea], the 50% inhibitory concentration (IC50) in assay [1] was 0.011 µM. The inhibition at 1 µM in assay [2] was found to be 0%.

For the compound `CCN(CC)CCNC(=O)Nc1ccc(Oc2ccnc3cc(OC)c(OC)cc23)c(C)c1` [Example 648, N-[2-(Diethylamino)ethyl]-N′-{4-[(6,7-dimethoxy-4-quinolyl)oxy]-3-methylphenyl}urea], the IC50 in assay [1] worked out at 0.016 µM; in assay [2] it was 0.937 µM.

Turning to `CCN(CC)CCNC(=O)Nc1ccc(Oc2ccnc3cc(OC)c(OC)cc23)cc1Cl` [Example 650, N-{2-Chloro-4-[(6,7-dimethoxy-4-quinolyl)oxy]phenyl}-N′-[2-(diethylamino)ethyl]urea], the values for the IC50 in assay [1] and in assay [2] were 0.032 µM and 0.42 µM, respectively.

Turning to `CCN(CC)CCNC(=O)Nc1ccc(Oc2ccnc3cc(OC)c(OC)cc23)c(Cl)c1` [Example 651, N-{3-Chloro-4-[(6,7-dimethoxy-4-quinolyl)oxy]phenyl}-N′-[2-(diethylamino)ethyl]urea], the IC50 is 0.04 µM in assay [1] and 0.808 µM in assay [2].

As for `COc1cc2ncnc(Oc3ccc(NC(=O)NCCN4CCOCC4)c([N+](=O)[O-])c3)c2cc1OC` [Example 652, N-{4-[(6,7-Dimethoxy-4-quinazolinyl)oxy]-2-nitrophenyl}-N′-(2-morpholinoethyl)urea], the IC50 in assay [1] is 0.043 µM; in assay [2], 0.115 µM.

For `COc1cc2ncnc(Oc3ccc(NC(=O)NCCN4CCCC4)c([N+](=O)[O-])c3)c2cc1OC` [Example 653, N-{4-[(6,7-Dimethoxy-4-quinazolinyl)oxy]-2-nitrophenyl}-N′-(2-tetrahydro-1H-1-pyrrolylethyl)urea], the IC50 in assay [1] is 0.023 µM; in assay [2], 0.581 µM.

On to `COc1cc2nccc(Oc3ccc(NC(=O)NCCN(C(C)C)C(C)C)cc3)c2cc1OC` [Example 654, N-[2-(Diisopropylamino)ethyl]-N′-{4-[(6,7-dimethoxy-4-quinolyl)oxy]phenyl}urea], for which the IC50 in assay [1] was 0.019 µM; in assay [2], 0.698 µM.

`COc1cc2nccc(Oc3ccc(NC(=O)NCCN(C(C)C)C(C)C)c(C)c3C)c2cc1OC` [Example 655, N-[2-(Diisopropylamino)ethyl]-N′-{4-[(6,7-dimethoxy-4-quinolyl)oxy]-2,3-dimethylphenyl}urea]: the IC50 in assay [1] came out at 0.043 µM. Further, in assay [2], the inhibition at 1 µM came to 43%.

Consider `COc1cc2ncnc(Oc3ccc(NC(=O)NCCN(C(C)C)C(C)C)cc3)c2cc1OC` [Example 656, N-[2-(Diisopropylamino)ethyl]-N′-{4-[(6,7-dimethoxy-4-quinazolinyl)oxy]phenyl}urea], for which the IC50 in assay [1] is 0.019 µM. Moreover, in assay [2], the inhibition at 1 µM is 32%.

On to `COc1cc2ncnc(Oc3ccc(NC(=O)NCCN(C(C)C)C(C)C)c(Cl)c3)c2cc1OC` [Example 657, N-{2-Chloro-4-[(6,7-dimethoxy-4-quinazolinyl)oxy]phenyl}-N′-[2-(diisopropylamino)ethyl]urea], for which the IC50 in assay [1] was 0.04 µM. Also, the inhibition at 1 µM in assay [2] worked out at 27%.

`COc1cc2nccc(Oc3ccc(NC(=O)NCCN(C(C)C)C(C)C)c([N+](=O)[O-])c3)c2cc1OC` [Example 658, N-[2-(Diisopropylamino)ethyl]-N′-{4-[(6,7-dimethoxy-4-quinolyl)oxy]-2-nitrophenyl}urea]: the IC50 in assay [1] is 0.019 µM; in assay [2] it was 0.389 µM.

In the case of `COc1cc(Oc2ncnc3cc(OC)c(OC)cc23)ccc1NC(=O)NCCN(C(C)C)C(C)C` [Example 660, N-[2-(Diisopropylamino)ethyl]-N′-{4-[(6,7-dimethoxy-4-quinazolinyl)oxy]-2-methoxyphenyl}urea], the values for the IC50 in assay [1] and in assay [2] were 0.025 µM and 0.835 µM, respectively.

With `CCN(CCNC(=O)Nc1ccc(Oc2ccnc3cc(OC)c(OC)cc23)cc1)c1cccc(C)c1` [Example 661, N-{4-[(6,7-Dimethoxy-4-quinolyl)oxy]phenyl}-N′-[2-(ethyl-3-methylanilino)ethyl]urea], the IC50 in assay [1] was below 0.01 µM; in assay [2] it was 0.075 µM.

As to `CCN(CCNC(=O)Nc1cc(C)c(Oc2ccnc3cc(OC)c(OC)cc23)cc1C)c1cccc(C)c1` [Example 662, N-{4-[(6,7-Dimethoxy-4-quinolyl)oxy]-2,5-dimethylphenyl}-N′-[2-(ethyl-3-methylanilino)ethyl]urea], the 50% inhibitory concentration (IC50) in assay [1] was found to be 0.023 µM; in assay [2], 0.296 µM.

On to `CCN(CCNC(=O)Nc1ccc(Oc2ccnc3cc(OC)c(OC)cc23)c(C)c1C)c1cccc(C)c1` [Example 663, N-{4-[(6,7-Dimethoxy-4-quinolyl)oxy]-2,3-dimethylphenyl}-N′-[2-(ethyl-3-methylanilino)ethyl]urea], for which the values for the IC50 in assay [1] and in assay [2] were below 0.01 µM and 0.202 µM, respectively.
